Where “and” joins values, the source holds several entries; their conditions need not be identical. Equal values may be shown once. Inconclusive results and toxic doses are left out.
System: P388 leukemia ip, CD2F1 mice, survival T/C
Assay: NCI In Vivo Anticancer Drug Screen. Data for tumor model P388 Leukemia (intraperitoneal) in CD2F1 (CDF1) mice
Settings: endpoint: median survival time, higher = longer survival
Method in brief: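 Mice carrying the transplanted tumor received test compound or vehicle. Survival was recorded in each group, and the value is the treated-group measurement divided by that of the vehicle-treated control group.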

[1] = dose: 50.0 mg/kg/injection, schedule: Q01DX005 (ip), vehicle: Klucel (hydroxypropylcellulose) (HPC)
[2] = dose: 100.0 mg/kg/injection, schedule: Q01DX005 (ip), vehicle: Klucel (hydroxypropylcellulose) (HPC)
[3] = dose: 60.0 mg/kg/injection, schedule: Q01DX005 (ip), vehicle: saline with Tween-80
[4] = dose: 120.0 mg/kg/injection, schedule: Q01DX005 (ip), vehicle: saline with Tween-80
[5] = dose: 240.0 mg/kg/injection, schedule: Q01DX005 (ip), vehicle: saline with Tween-80
[6] = dose: 50.0 mg/kg/injection, schedule: Q01DX005 (ip), vehicle: saline with Tween-80
[7] = dose: 100.0 mg/kg/injection, schedule: Q01DX005 (ip), vehicle: saline with Tween-80
[8] = dose: 200.0 mg/kg/injection, schedule: Q01DX005 (ip), vehicle: saline with Tween-80
[9] = dose: 25.0 mg/kg/injection, schedule: Q04DX003 (ip), vehicle: saline with Tween-80
[10] = dose: 50.0 mg/kg/injection, schedule: Q04DX003 (ip), vehicle: saline with Tween-80
[11] = dose: 100.0 mg/kg/injection, schedule: Q04DX003 (ip), vehicle: saline
[12] = dose: 200.0 mg/kg/injection, schedule: Q04DX003 (ip), vehicle: saline
[13] = dose: 400.0 mg/kg/injection, schedule: Q04DX003 (ip), vehicle: saline
[14] = dose: 50.0 mg/kg/injection, schedule: Q01DX009 (ip), vehicle: saline with Tween-80
[15] = dose: 100.0 mg/kg/injection, schedule: Q01DX009 (ip), vehicle: saline with Tween-80
[16] = dose: 200.0 mg/kg/injection, schedule: Q01DX009 (ip), vehicle: saline with Tween-80

SMILES: C[O+]=c1cccc2sc(-c3ccccc3)ccc1-2
- T/C [1]: 99 % of control
- T/C [2]: 108 % of control

SMILES: COc1ccc(OC)c(NC(=O)CCCC(=O)C(C#N)c2nc3ccccc3s2)c1 (stereo unspecified)
- T/C [3]: 105 % of control
- T/C [4]: 108 % of control
- T/C [5]: 100 % of control

SMILES: CC1(C)O[Se](=O)OC1(C)C
- T/C (dose: 1.56 mg/kg/injection, schedule: Q04DX003 (ip), vehicle: saline): 103 % of control
- T/C (dose: 3.12 mg/kg/injection, schedule: Q04DX003 (ip), vehicle: saline): 98 % of control
- T/C (dose: 6.25 mg/kg/injection, schedule: Q04DX003 (ip), vehicle: saline): 90 % of control

SMILES: CC(=O)C1=C(N)C(C#N)=C(C)C(C)(O)C1 (stereo unspecified)
- T/C (dose: 50.0 mg/kg/injection, schedule: Q01DX009 (ip), vehicle: saline + alcohol): 108 % of control
- T/C (dose: 100.0 mg/kg/injection, schedule: Q01DX009 (ip), vehicle: saline + alcohol): 90 % of control
- T/C (dose: 200.0 mg/kg/injection, schedule: Q01DX009 (ip), vehicle: saline + alcohol): 89 % of control

SMILES: CC/C(=C(\CC)c1ccc(OCCN(C)C)cc1)c1ccc(OCCN(C)C)cc1
- T/C (dose: 6.25 mg/kg/injection, schedule: Q01DX005 (ip), vehicle: saline): 104 % of control
- T/C (dose: 12.5 mg/kg/injection, schedule: Q01DX005 (ip), vehicle: saline): 98 % of control

SMILES: O=C(Nc1ccccc1C(=O)NCC1CC1)c1cccs1
- T/C [3]: 106 % of control
- T/C [4]: 100 % of control
- T/C [5]: 99 % of control

SMILES: CN(C)CCCN1CN(CCCN(C)C)CN(CCCN(C)C)C1
- T/C (dose: 50.0 mg/kg/injection, schedule: Q01DX005 (ip), vehicle: saline): 99 % of control
- T/C (dose: 100.0 mg/kg/injection, schedule: Q01DX005 (ip), vehicle: saline): 103 % of control

SMILES: COc1cc(C(=O)Nc2ccc(S(=O)(=O)Nc3nc(C)cc(C)n3)cc2)cc(OC)c1OC
- T/C [6]: 98 % of control
- T/C [7]: 88 % of control
- T/C [8]: 103 % of control

SMILES: Cc1cc2c(C(C)C)c(O)c(O)cc2c(O)c1-c1c(C)cc2c(C(C)C)c(O)c(O)cc2c1O
- T/C (dose: 12.5 mg/kg/injection, schedule: Q04DX003 (ip), vehicle: saline with Tween-80): 95 % of control
- T/C [9]: 100 % of control
- T/C [10]: 104 % of control

SMILES: CC1OC2CC(=O)OC2C2=C1C(=O)c1cc(-c3cc(O)c4c(c3)C(=O)C3=C(C4=O)C4OC(=O)CC4OC3C)cc(O)c1C2=O (stereo unspecified)
- T/C (dose: 0.95 mg/kg/injection, schedule: Q01DX005 (ip), vehicle: DMSO): 98 % of control
- T/C (dose: 1.9 mg/kg/injection, schedule: Q01DX005 (ip), vehicle: DMSO): 107 % of control
- T/C (dose: 3.8 mg/kg/injection, schedule: Q01DX005 (ip), vehicle: DMSO): 99 % of control

SMILES: CN(C)c1ccc(C2(c3ccc(N(C)C)cc3)NNC(=O)c3ccccc32)cc1
- T/C [6]: 93 % of control
- T/C [7]: 90 % of control
- T/C [8]: 86 % of control

SMILES: CC1=CCCCC1=O
- T/C [3]: 107 % of control
- T/C [4]: 106 % of control
- T/C [5]: 102 % of control

SMILES: OC(c1ccccc1)(c1ccc(Br)cc1)C1CC1 (stereo unspecified)
- T/C (dose: 25.0 mg/kg/injection, schedule: Q01DX001 (ip), vehicle: Klucel (hydroxypropylcellulose) (HPC)): 100 % of control
- T/C (dose: 50.0 mg/kg/injection, schedule: Q01DX001 (ip), vehicle: Klucel (hydroxypropylcellulose) (HPC)): 96 % of control
- T/C (dose: 100.0 mg/kg/injection, schedule: Q01DX001 (ip), vehicle: Klucel (hydroxypropylcellulose) (HPC)): 97 % of control

SMILES: COC(=O)CCCCCCCCCCCC1C=CCC1 (stereo unspecified)
- T/C (dose: 100.0 mg/kg/injection, schedule: Q01DX001 (ip), vehicle: saline): 105 % of control
- T/C (dose: 200.0 mg/kg/injection, schedule: Q01DX001 (ip), vehicle: saline): 100 % of control
- T/C (dose: 400.0 mg/kg/injection, schedule: Q01DX001 (ip), vehicle: saline): 104 % of control

SMILES: O=S(=O)(Nc1ncccn1)c1ccc(N=Cc2c3ccccc3nc3cc(Cl)ccc23)cc1
- T/C [6]: 91 % of control
- T/C [7]: 90 % of control
- T/C [8]: 89 % of control

SMILES: C=[CH][Sn]([Cl])([Cl])[CH]=C.COc1ccc(P(=O)(c2ccc(OC)cc2)c2ccc(OC)cc2)cc1
- T/C (dose: 25.0 mg/kg/injection, schedule: Q04DX003 (ip), vehicle: saline): 100 % of control and 113 % of control
- T/C (dose: 50.0 mg/kg/injection, schedule: Q04DX003 (ip), vehicle: saline): 100 % of control and 111 % of control
- T/C [11]: 100 % of control and 115 % of control and 120 % of control
- T/C [12]: 100 % of control and 111 % of control
- T/C [13]: 117 % of control

SMILES: O=C1CC2(C(=O)N1)c1ccccc1-c1ccccc12
- T/C [14]: 96 % of control
- T/C [15]: 103 % of control
- T/C [16]: 119 % of control

SMILES: CC(N)(CO)C(=O)O (stereo unspecified)
- T/C [11]: 104 % of control
- T/C [12]: 90 % of control
- T/C [13]: 100 % of control

SMILES: CC1(C)C2CCC1(C)C(O)C2N (stereo unspecified)
- T/C (dose: 30.0 mg/kg/injection, schedule: Q01DX005 (ip), vehicle: saline with Tween-80): 93 % of control
- T/C [3]: 94 % of control and 95 % of control

SMILES: O=C1NC2C=CN(Cc3ccccc3)C=C2C(=O)N2CCCC12 (stereo unspecified)
- T/C [3]: 101 % of control
- T/C [4]: 101 % of control
- T/C [5]: 97 % of control

SMILES: O=c1c2ccccc2nc2n1CCC/C2=C\c1ccc2c(c1)OCO2
- T/C (dose: 91.75 mg/kg/injection, schedule: Q04DX002 (ip), vehicle: Klucel (hydroxypropylcellulose) (HPC)): 100 % of control
- T/C (dose: 183.5 mg/kg/injection, schedule: Q04DX002 (ip), vehicle: Klucel (hydroxypropylcellulose) (HPC)): 103 % of control
- T/C (dose: 367.0 mg/kg/injection, schedule: Q04DX002 (ip), vehicle: Klucel (hydroxypropylcellulose) (HPC)): 102 % of control

SMILES: COCC#CC(C)(C)OC
- T/C (dose: 60.0 mg/kg/injection, schedule: Q01DX005 (ip), vehicle: saline): 95 % of control
- T/C (dose: 120.0 mg/kg/injection, schedule: Q01DX005 (ip), vehicle: saline): 95 % of control
- T/C (dose: 240.0 mg/kg/injection, schedule: Q01DX005 (ip), vehicle: saline): 99 % of control

SMILES: COC(=O)C1=C(C(=O)OC)C2C=CC1C1C(Cl)C(Cl)C21 (stereo unspecified)
- T/C (dose: 7.5 mg/kg/injection, schedule: Q01DX009 (ip), vehicle: saline with Tween-80): 103 % of control
- T/C (dose: 15.0 mg/kg/injection, schedule: Q01DX009 (ip), vehicle: saline with Tween-80): 112 % of control
- T/C (dose: 30.0 mg/kg/injection, schedule: Q01DX009 (ip), vehicle: saline with Tween-80): 115 % of control
- T/C [15]: 95 % of control
- T/C [16]: 90 % of control

SMILES: COc1ccc2c(c1)[C@@]13CCCC[C@H]1[C@@H](C2)N(C)CC3(C)O (stereo partly specified)
- T/C (dose: 100.0 mg/kg/injection, schedule: Q04DX002 (ip), vehicle: Klucel (hydroxypropylcellulose) (HPC)): 97 % of control
- T/C (dose: 200.0 mg/kg/injection, schedule: Q04DX002 (ip), vehicle: Klucel (hydroxypropylcellulose) (HPC)): 105 % of control

SMILES: O=[N+]([O-])c1ccc(N2C(c3ccccc3)=N[C@@H](N3CCCCC3)[C@@H]2N2CCCCC2)cc1
- T/C [1]: 97 % of control
- T/C [2]: 100 % of control
- T/C (dose: 200.0 mg/kg/injection, schedule: Q01DX005 (ip), vehicle: Klucel (hydroxypropylcellulose) (HPC)): 93 % of control

SMILES: c1ccc(CCN2COc3c(ccc4cccnc34)C2)cc1
- T/C [9]: 110 % of control
- T/C [10]: 110 % of control
- T/C (dose: 100.0 mg/kg/injection, schedule: Q04DX003 (ip), vehicle: saline with Tween-80): 100 % of control

SMILES: CN(C)c1ccc2c(c1)C(=O)N(OS(C)(=O)=O)C2=O
- T/C (dose: 25.0 mg/kg/injection, schedule: Q01DX005 (ip), vehicle: saline with Tween-80): 111 % of control
- T/C [6]: 108 % of control and 117 % of control
- T/C [7]: 106 % of control

SMILES: N#CO
- T/C [15]: 90 % of control

SMILES: O=S(=O)(/C=C/c1ccccc1)OCCCl
- T/C [14]: 103 % of control
- T/C [15]: 107 % of control
- T/C [16]: 107 % of control

SMILES: CCOc1c(N=Nc2ccccc2Cl)c(C)nn1C(N)=S
- T/C (dose: 3.75 mg/kg/injection, schedule: Q01DX005 (ip), vehicle: Klucel + Tween-80): 103 % of control
- T/C (dose: 7.5 mg/kg/injection, schedule: Q01DX005 (ip), vehicle: Klucel + Tween-80): 103 % of control
- T/C (dose: 15.0 mg/kg/injection, schedule: Q01DX005 (ip), vehicle: Klucel + Tween-80): 100 % of control and 110 % of control

SMILES: CCCCOc1cccc2c1C(=O)c1c(O)c3c(c(O)c1C2=O)C[C@@](O)(C(C)=O)C[C@@H]3OC1CC(N)C(O)C(C)O1 (stereo partly specified)
- T/C (dose: 3.13 mg/kg/injection, schedule: Q04DX003 (ip), vehicle: water): 117 % of control and 120 % of control
- T/C (dose: 6.25 mg/kg/injection, schedule: Q04DX003 (ip), vehicle: water): 113 % of control and 117 % of control
- T/C (dose: 12.5 mg/kg/injection, schedule: Q04DX003 (ip), vehicle: water): 115 % of control
- T/C (dose: 50.0 mg/kg/injection, schedule: Q04DX003 (ip), vehicle: water): 89 % of control and 90 % of control

— PubChem BioAssay AID330 (DTP/NCI, 2004)
